Measurements reported in patent US5968910A, “Compositions containing two or three inhibitors of different HIV reverse transcriptases” (priority 1994, dated 1999).

System: HIV-1
Assay: Breakthrough of mutant HIV-1 strains in CEM cell cultures, single drugs and double/triple combinations
Format: cell-based
Method: The culture medium consisted of RPMI 1640 containing 10% fetal bovine serum, 2 mM L-glutamine, and 0.075% NaHCO3. The multiplicity of the initial infection was ~1000 times the CCID50 (50% cell culture infective dose). Passages were performed every 3 to 4 days by adding 0.5 to 1.0 ml of the infected culture supernatant to 5 ml of a suspension containing 4×10^5 uninfected CEM cells per ml. Syncytium formation was used as a parameter of virus breakthrough in the cell cultures. In the drug combination experiments, the compounds were combined at the same initial concentrations as used for the two lowest concentrations in the single-drug experiments.
Compound IV, BHAP and TSAO-m^3 T were added to HIV-1-infected CEM cell cultures at 0.04, 0.10 and 0.25 ug/ml (Compound IV and BHAP) or 1.0, 2.5 and 5.0 μg/ml (TSAO-m^3 T). In addition, various double- and triple-drug combinations of Compound IV, BHAP and TSAO-m^3 T were performed, combining these inhibitors at their lowest (0.04 μg/ml) or intermediary (0.1 μg/ml) concentration as used in the single-drug experiments.

Cc1cn([C@@H]2O[C@H](CO[Si](C)(C)C(C)(C)C)[C@@]3(OS(=O)(=O)C=C3N)[C@H]2O[Si](C)(C)C(C)(C)C)c(=O)n(C)c1=O [TSAO-m^3 T]
HIV-1-induced syncytium formation in CEM cells (single drug 1.0 μg/ml, day 4 post infection): 0 percentage of control | HIV-1-induced syncytium formation in CEM cells (single drug 1.0 μg/ml, day 7 post infection): 0 percentage of control | HIV-1-induced syncytium formation in CEM cells (single drug 1.0 μg/ml, day 11 post infection): 0 percentage of control | HIV-1-induced syncytium formation in CEM cells (single drug 1.0 μg/ml, day 14 post infection): 12.5 percentage of control | HIV-1-induced syncytium formation in CEM cells (single drug 1.0 μg/ml, day 18 post infection): 75 percentage of control | HIV-1-induced syncytium formation in CEM cells (single drug 1.0 μg/ml, day 21 post infection): 100 percentage of control | HIV-1-induced syncytium formation in CEM cells (single drug 1.0 μg/ml, day 25 post infection): 100 percentage of control | HIV-1-induced syncytium formation in CEM cells (single drug 1.0 μg/ml, day 28 post infection): 100 percentage of control | HIV-1-induced syncytium formation in CEM cells (single drug 1.0 μg/ml, day 32 post infection): 100 percentage of control | HIV-1-induced syncytium formation in CEM cells (single drug 1.0 μg/ml, day 35 post infection): 100 percentage of control | HIV-1-induced syncytium formation in CEM cells (single drug 1.0 μg/ml, day 39 post infection): 100 percentage of control | HIV-1-induced syncytium formation in CEM cells (single drug 1.0 μg/ml, day 42 post infection): 100 percentage of control | HIV-1-induced syncytium formation in CEM cells (single drug 1.0 μg/ml, day 46 post infection): 100 percentage of control | HIV-1-induced syncytium formation in CEM cells (single drug 1.0 μg/ml, day 49 post infection): 100 percentage of control | HIV-1-induced syncytium formation in CEM cells (single drug 1.0 μg/ml, day 53 post infection): 100 percentage of control | HIV-1-induced syncytium formation in CEM cells (single drug 1.0 μg/ml, day 56 post infection): 100 percentage of control | HIV-1-induced syncytium formation in CEM cells (single drug 1.0 μg/ml, day 60 post infection): 100 percentage of control | HIV-1-induced syncytium formation in CEM cells (single drug 1.0 μg/ml, day 64 post infection): 100 percentage of control | HIV-1-induced syncytium formation in CEM cells (single drug 1.0 μg/ml, day 67 post infection): 100 percentage of control | HIV-1-induced syncytium formation in CEM cells (single drug 1.0 μg/ml, day 71 post infection): 100 percentage of control | HIV-1-induced syncytium formation in CEM cells (single drug 1.0 μg/ml, day 74 post infection): 100 percentage of control | HIV-1-induced syncytium formation in CEM cells (single drug 1.0 μg/ml, day 77 post infection): 100 percentage of control | HIV-1-induced syncytium formation in CEM cells (single drug 2.5 μg/ml, day 4 post infection): 0 percentage of control | HIV-1-induced syncytium formation in CEM cells (single drug 2.5 μg/ml, day 7 post infection): 0 percentage of control | HIV-1-induced syncytium formation in CEM cells (single drug 2.5 μg/ml, day 11 post infection): 0 percentage of control | HIV-1-induced syncytium formation in CEM cells (single drug 2.5 μg/ml, day 14 post infection): 12.5 percentage of control | HIV-1-induced syncytium formation in CEM cells (single drug 2.5 μg/ml, day 18 post infection): 75 percentage of control | HIV-1-induced syncytium formation in CEM cells (single drug 2.5 μg/ml, day 21 post infection): 100 percentage of control | HIV-1-induced syncytium formation in CEM cells (single drug 2.5 μg/ml, day 25 post infection): 100 percentage of control | HIV-1-induced syncytium formation in CEM cells (single drug 2.5 μg/ml, day 28 post infection): 100 percentage of control | HIV-1-induced syncytium formation in CEM cells (single drug 2.5 μg/ml, day 32 post infection): 100 percentage of control | HIV-1-induced syncytium formation in CEM cells (single drug 2.5 μg/ml, day 35 post infection): 100 percentage of control | HIV-1-induced syncytium formation in CEM cells (single drug 2.5 μg/ml, day 39 post infection): 100 percentage of control | HIV-1-induced syncytium formation in CEM cells (single drug 2.5 μg/ml, day 42 post infection): 100 percentage of control | HIV-1-induced syncytium formation in CEM cells (single drug 2.5 μg/ml, day 46 post infection): 100 percentage of control | HIV-1-induced syncytium formation in CEM cells (single drug 2.5 μg/ml, day 49 post infection): 100 percentage of control | HIV-1-induced syncytium formation in CEM cells (single drug 2.5 μg/ml, day 53 post infection): 100 percentage of control | HIV-1-induced syncytium formation in CEM cells (single drug 2.5 μg/ml, day 56 post infection): 100 percentage of control | HIV-1-induced syncytium formation in CEM cells (single drug 2.5 μg/ml, day 60 post infection): 100 percentage of control | HIV-1-induced syncytium formation in CEM cells (single drug 2.5 μg/ml, day 64 post infection): 100 percentage of control | HIV-1-induced syncytium formation in CEM cells (single drug 2.5 μg/ml, day 67 post infection): 100 percentage of control | HIV-1-induced syncytium formation in CEM cells (single drug 2.5 μg/ml, day 71 post infection): 100 percentage of control | HIV-1-induced syncytium formation in CEM cells (single drug 2.5 μg/ml, day 74 post infection): 100 percentage of control | HIV-1-induced syncytium formation in CEM cells (single drug 2.5 μg/ml, day 77 post infection): 100 percentage of control | HIV-1-induced syncytium formation in CEM cells (single drug 5.0 μg/ml, day 4 post infection): 0 percentage of control | HIV-1-induced syncytium formation in CEM cells (single drug 5.0 μg/ml, day 7 post infection): 0 percentage of control | HIV-1-induced syncytium formation in CEM cells (single drug 5.0 μg/ml, day 11 post infection): 0 percentage of control | HIV-1-induced syncytium formation in CEM cells (single drug 5.0 μg/ml, day 14 post infection): 12.5 percentage of control | HIV-1-induced syncytium formation in CEM cells (single drug 5.0 μg/ml, day 18 post infection): 75 percentage of control | HIV-1-induced syncytium formation in CEM cells (single drug 5.0 μg/ml, day 21 post infection): 100 percentage of control | HIV-1-induced syncytium formation in CEM cells (single drug 5.0 μg/ml, day 25 post infection): 100 percentage of control | HIV-1-induced syncytium formation in CEM cells (single drug 5.0 μg/ml, day 28 post infection): 100 percentage of control | HIV-1-induced syncytium formation in CEM cells (single drug 5.0 μg/ml, day 32 post infection): 100 percentage of control | HIV-1-induced syncytium formation in CEM cells (single drug 5.0 μg/ml, day 35 post infection): 100 percentage of control | HIV-1-induced syncytium formation in CEM cells (single drug 5.0 μg/ml, day 39 post infection): 100 percentage of control | HIV-1-induced syncytium formation in CEM cells (single drug 5.0 μg/ml, day 42 post infection): 100 percentage of control | HIV-1-induced syncytium formation in CEM cells (single drug 5.0 μg/ml, day 46 post infection): 100 percentage of control | HIV-1-induced syncytium formation in CEM cells (single drug 5.0 μg/ml, day 49 post infection): 100 percentage of control | HIV-1-induced syncytium formation in CEM cells (single drug 5.0 μg/ml, day 53 post infection): 100 percentage of control | HIV-1-induced syncytium formation in CEM cells (single drug 5.0 μg/ml, day 56 post infection): 100 percentage of control | HIV-1-induced syncytium formation in CEM cells (single drug 5.0 μg/ml, day 60 post infection): 100 percentage of control | HIV-1-induced syncytium formation in CEM cells (single drug 5.0 μg/ml, day 64 post infection): 100 percentage of control | HIV-1-induced syncytium formation in CEM cells (single drug 5.0 μg/ml, day 67 post infection): 100 percentage of control | HIV-1-induced syncytium formation in CEM cells (single drug 5.0 μg/ml, day 71 post infection): 100 percentage of control | HIV-1-induced syncytium formation in CEM cells (single drug 5.0 μg/ml, day 74 post infection): 100 percentage of control | HIV-1-induced syncytium formation in CEM cells (single drug 5.0 μg/ml, day 77 post infection): 100 percentage of control | virus breakthrough delayed till day (single drug, higher concentrations): 14 days
